In publication PMC8330735 (Journal of Enzyme Inhibition and Medicinal Chemistry, 2021):
Where two headings read alike, the source gives them in different places.

Columns and labels:
[1] = system: ROS production in LPS-activated RAW 264.7 macrophages; assay: ROS production in LPS-activated RAW 264.7 macrophages (DCFH-DA); assay type: cell-based; conditions: Mus musculus, RAW264.7; LPS 1 µg/mL activated RAW 264.7
Experimental: HCA7 colorectal cancer cell line was obtained from Sigma. […] Louis, MO) containing 10% heat-inactivated foetal bovine serum (HI-FBS) (Gibco, USA), 100 μg/mL streptomycin (Invitrogen, USA), and […] penicillin (Invitrogen, USA)[40]. HCA7 and RAW 264.7 cells were cultured in Dulbecco's minimal essential media (DMEM, Invitrogen) containing 10% HI-FBS, sodium pyruvate (1 mM), penicillin ([…]), and streptomycin (100 mg/m)[41]^,[42]. […] The cells were cultured, incubated with the different test compounds, and activated with LPS (1 µg/mL) as detailed above. […] IC50 values were calculated from the dose–response curves.

HT29 cells = assay: MTS cell viability assay HT29; assay type: cell-based; conditions: Homo sapiens, HT-29, 48 h, cell line moderately expressing COX-2
Experimental: (§1) Human colorectal cancer cell lines, HCT116 and HT29, and RAW 264.7 macrophages were obtained from ATCC (Manassas, VA). HCA7 colorectal cancer cell line was obtained from Sigma. HT29 and HCT116 cells were cultured in McCoy's 5 A medium (Sigma Aldrich, St. Louis, MO) containing 10% heat-inactivated foetal bovine serum (HI-FBS) (Gibco, USA), 100 μg/mL streptomycin (Invitrogen, USA), and […] penicillin (Invitrogen, USA)[40]. HCA7 and RAW 264.7 cells were cultured in Dulbecco's minimal essential media (DMEM, Invitrogen) containing 10% HI-FBS, sodium pyruvate (1 mM), penicillin ([…]), and streptomycin (100 mg/m)[41]^,[42].
(§2) Cells were cultured in 96‐well plates for 48 h and then treated with serum-free media containing different concentrations of the tested compounds (12.5, 25, 50, 100 and 150 µM). After 48 h., MTS reagent (Promega) was added as directed by the manufacturer, and then, the absorbance was measured at 495 nm. The absorbance is proportional to the number of viable cells. IC50 was calculated from the dose-response curves as described previously[45] using GraphPad Prism 8 software (GraphPad Software, San Diego, CA).

human recombinant COX-2 = target: T1, human recombinant COX-2 (Homo sapiens, UniProt P35354); assay: In vitro COX-2 inhibitory assay (colorimetric Cayman kit); conditions: for Selectivity Index (SI): COX-1 IC50/COX-2 IC50
T1 sequence (P35354 18-604): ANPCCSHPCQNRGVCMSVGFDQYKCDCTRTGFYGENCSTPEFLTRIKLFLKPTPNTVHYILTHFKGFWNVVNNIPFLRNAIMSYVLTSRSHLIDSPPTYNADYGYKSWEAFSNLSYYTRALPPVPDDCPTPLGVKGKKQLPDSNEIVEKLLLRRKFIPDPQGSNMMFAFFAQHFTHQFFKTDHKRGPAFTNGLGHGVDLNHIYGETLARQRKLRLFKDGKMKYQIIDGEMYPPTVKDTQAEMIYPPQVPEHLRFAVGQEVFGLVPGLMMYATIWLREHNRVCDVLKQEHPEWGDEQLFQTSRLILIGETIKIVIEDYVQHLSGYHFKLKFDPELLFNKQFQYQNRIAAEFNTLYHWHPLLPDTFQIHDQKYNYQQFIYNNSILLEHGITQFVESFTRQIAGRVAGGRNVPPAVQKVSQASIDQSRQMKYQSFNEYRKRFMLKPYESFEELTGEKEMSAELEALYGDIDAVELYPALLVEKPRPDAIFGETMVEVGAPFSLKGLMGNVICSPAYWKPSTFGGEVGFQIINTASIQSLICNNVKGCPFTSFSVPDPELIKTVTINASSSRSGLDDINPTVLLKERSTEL
Experimental: (§3) All the newly synthesised compounds were tested for their ability to inhibit COX-1 and COX-2 enzymes using a screening assay method.

HCT116 cells = assay: MTS cell viability assay HCT116; assay type: cell-based; conditions: Homo sapiens, HCT-116, 48 h, cell line scarcely expressing COX-2
Experimental: as §1, §2

[2] = system: stomach ulceration in rats; assay: Gastric acute ulcerogenic activity; conditions: rat, n = 5; for Ulcer Index (UI): UI = UN + US + UP×10^−1
Experimental: (§4) The rats from the previous experiment were fasted for 12 h., followed by the administration of additional doses of the selected compounds or the two references for two consecutive days. Six hrs after the last treatment, the animals were sacrificed, and their stomachs were removed, washed with saline solution (0.9%) and examined for ulceration using a magnifying lens. The ulcer scores were estimated according to the method prescribed by Kulkarni and as detailed in our previous studies[36–38]. The following scores were individually assigned to each lesion: normal coloured stomach, 0; red colouration, 0.5; spot ulcers, 1; haemorrhagic streaks, 1.5; ulcer >3 but <5 mm, 2; and ulcers >5 mm, 3.

[3] = system: NO production in LPS-activated RAW 264.7 macrophages; assay: NO production in LPS-activated RAW 264.7 macrophages (DAF-FM); assay type: cell-based; conditions: Mus musculus, RAW264.7; LPS 1 µg/mL activated RAW 264.7
Experimental: HCA7 colorectal cancer cell line was obtained from Sigma. […] Louis, MO) containing 10% heat-inactivated foetal bovine serum (HI-FBS) (Gibco, USA), 100 μg/mL streptomycin (Invitrogen, USA), and […] penicillin (Invitrogen, USA)[40]. HCA7 and RAW 264.7 cells were cultured in Dulbecco's minimal essential media (DMEM, Invitrogen) containing 10% HI-FBS, sodium pyruvate (1 mM), penicillin ([…]), and streptomycin (100 mg/m)[41]^,[42]. […] Molecular Probes, USA). Briefly, RAW 264.7 cells were cultured in black 96-well plates (200,000 cells/mL, 100 µl/well) for 24 h. […] The fluorescence intensity, which is directly proportional to NO levels, was quantified, as detailed in our previous study. IC50 values were calculated from the dose–response curves.

[4] = system: carrageenan-induced rat paw oedema; assay: Carrageenan-induced rat paw oedema test; assay type: in vivo; conditions: compounds and celecoxib 50 mg/kg, ibuprofen and indomethacin 20 mg/kg; for Mean oedema thickness 1h: 1 h after carrageenan; for Mean oedema thickness 1h / Mean oedema thickness 2h / Mean oedema thickness 3h / Mean oedema thickness 4h / Mean oedema thickness 5h / Mean oedema thickness 24h / Mean oedema thickness 0h: mean ± SEM, n = 5; for Mean oedema thickness 2h: 2 h after carrageenan; for Mean oedema thickness 3h: 3 h after carrageenan; for Mean oedema thickness 4h: 4 h after carrageenan; for Mean oedema thickness 5h: 5 h after carrageenan; for Mean oedema thickness 24h: 24 h after carrageenan; for Mean oedema thickness 0h: before carrageenan (0 h); for Average oedema inhibition%: from area under the curve of all time points
Experimental: The rats were divided into nine groups (n = 5/group). All tested compounds were suspended in 1% Tween-80. Group 1, controls, were given the vehicle (1% Tween80, 10 ml/kg). […] The rats were given the drugs 1 h before the injection of carrageenan solution (1% in 0.9% NaCl, 0.1 ml) (Sigma Aldrich, USA) in the sub-planter tissue of the right hind paw. The paw thickness (mm) was measured using a calliper before (0 h) and after carrageenan injection at 1, 2, 3, 4, 5 and 24 h. The inhibition of oedema thickness was calculated using the following formula (control– drug/control) × 100.

ovine COX-1 = target: T2, ovine COX-1 (Ovis aries, UniProt P05979); assay: In vitro COX-1 inhibitory assay (colorimetric Cayman kit)
T2 sequence (P05979 25-600): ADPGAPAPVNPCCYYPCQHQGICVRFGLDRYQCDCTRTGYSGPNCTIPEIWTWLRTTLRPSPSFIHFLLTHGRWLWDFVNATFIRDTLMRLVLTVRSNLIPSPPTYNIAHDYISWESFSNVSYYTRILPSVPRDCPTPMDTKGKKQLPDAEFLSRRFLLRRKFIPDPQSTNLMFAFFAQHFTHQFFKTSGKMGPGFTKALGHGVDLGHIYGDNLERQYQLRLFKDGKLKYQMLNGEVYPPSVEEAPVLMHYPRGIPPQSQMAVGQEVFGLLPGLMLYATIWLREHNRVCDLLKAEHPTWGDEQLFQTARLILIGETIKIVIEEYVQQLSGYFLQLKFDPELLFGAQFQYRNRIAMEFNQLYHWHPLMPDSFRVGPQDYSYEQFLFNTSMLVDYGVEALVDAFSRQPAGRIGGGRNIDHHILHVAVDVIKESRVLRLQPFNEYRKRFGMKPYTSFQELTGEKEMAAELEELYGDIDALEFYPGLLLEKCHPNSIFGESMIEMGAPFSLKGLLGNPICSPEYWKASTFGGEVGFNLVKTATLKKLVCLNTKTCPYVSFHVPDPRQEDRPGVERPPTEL
Experimental: as §3

HCA7 cells = assay: MTS cell viability assay HCA7; assay type: cell-based; conditions: Homo sapiens, HCA-7, 48 h, cell line highly expressing COX-2
Experimental: as §1, §2

[5] = system: stomach ulceration in rats; conditions: rat, in vivo, 2 days
Experimental: as §4

[6] = system: acetic acid-induced writhing in mice; assay: Acetic acid induced writhing test; assay type: in vivo; conditions: 50 mg/kg p.o., 1 h prior acetic acid i.p., within 30 min
Experimental: The number of writhes, manifested as extension of hind legs, constriction of abdomen, or turning of trunk was recorded within 30 min.

IC50 [1] [µM] | IC50 (HT29 cells) [µM] | IC50 (human recombinant COX-2) [µM] | Selectivity Index (SI) (human recombinant COX-2) | IC50 (HCT116 cells) [µM] | IC50 [3] [µM] | IC50 (ovine COX-1) [µM] | SMILES | Average Ulcer number [2] | Lesion Incidence (%) [2] [%] | Number of rats with ulcer [2] | Mean oedema thickness 1h [4] [mm] | Mean oedema thickness 2h [4] [mm] | Mean oedema thickness 3h [4] [mm] | Mean oedema thickness 4h [4] [mm] | Mean oedema thickness 5h [4] [mm] | Mean oedema thickness 24h [4] [mm] | Mean oedema thickness 0h [4] [mm] | Average oedema inhibition% [4] [%] | IC50 (HCA7 cells) [µM] | Ulcer Index (UI) [2] | also measured
29.7 ± 1.07 | 15.42 ± 0.06 | 0.04 ± 0.08 | 317.00 | 75.35 ± 0.1 | 31.5 ± 1.08 | 12.68 ± 0.11 | CN1c2ccccc2C(=O)N(NC(=O)Cc2c[nH]c3ccccc23)C1c1ccc(Cl)cc1 (stereo not shown) [4a, N-(2-(4-chlorophenyl)-1-methyl-4-oxo-1,4-dihydroquinazolin-3(2H)-yl)-2-(1H-indol-3-yl)acetamide] | 1.6 | 60 | 3 | 2.67 ± 0.24 | 2.90 ± 0.33 | 2.14 ± 0.25 | 2.04 ± 0.24 | 1.39 ± 0.06 | 0.54 ± 0.21 | 0.00 ± 0.00 | 33.40 | 137.3 ± 0.08 | – | –
24.5 ± 2.06 | 66.67 ± 0.07 | 0.07 | 99.00 | > 150 | 32.2 ± 1.32 | 6.93 ± 0.15 | CN1c2ccccc2C(=O)N(NC(=O)Cc2c[nH]c3ccccc23)C1c1ccc([N+](=O)[O-])cc1 (stereo not shown) [4b, 2-(1 h-indol-3-yl)-N-(1-methyl-2-(4-nitrophenyl)-4-oxo-1,4dihydroquinazolin-3(2H)-yl)acetamide] | 0.8 | 20 | 1 | 1.39 ± 0.09 | 1.89 ± 0.25 | 1.70 ± 0.17 | 1.14 ± 0.22 | 1.42 ± 0.28 | 0.16 ± 0.08 | 0.00 ± 0.00 | 49.47 | > 150 | 3 | melting point: 239 to 243 °C
16.2 ± 1.3 | > 150 | 0.04 | 359.74 | > 150 | 13 ± 1.36 | 15.4 ± 0.17 | O=C(CSc1nc2ccccc2c(=O)n1NC(=O)Cc1ccccc1)NNC(=O)c1ccccc1 [14c, N-(2-((2-(2-benzoylhydrazinyl)-2-oxoethyl)thio)-4-oxoquinazolin-3(4H)-yl)-2-phenylacetamide] | 0.8 | 40 | 2 | 3.02 ± 0.35 | 2.89 ± 0.13 | 2.42 ± 0.18 | 2.37 ± 0.19 | 2.34 ± 0.23 | 0.57 ± 0.09 | 0.00 ± 0.00 | 31.86 | > 150 | 5.3 | melting point: 235 to 240 °C
– | 5.82 ± 0.38 | – | – | 53.77 ± 0.05 | – | – | Cc1ccc(-c2cc(C(F)(F)F)nn2-c2ccc(S(N)(=O)=O)cc2)cc1 [Celecoxib, reference compound] | – | – | – | 1.27 ± 0.07 | 1.51 ± 0.07 | 1.49 ± 0.14 | 1.39 ± 0.12 | 1.19 ± 0.08 | 0.53 ± 0.12 | 0.00 ± 0.00 | 47.60 | 51.36 ± 0.04 | – | Average Ulcer number [5]: 0.2; Lesion Incidence (%) [5]: 20%; Number of rats with ulcer [5]: 1; Number of writhes [6]: 29.20 writhes
